The values that follow are results of earlier work, collected in patent publication US12194002B2, “Compositions and methods to improve the therapeutic benefit of suboptimally administered chemical compounds including substituted hexitols such as dibromodulcitol” (priority 2011, dated 2025).

The target in data set [1] is JAK2V617F mutant of the JAK2 tyrosine kinase (Homo sapiens, UniProt O60674, V617F).
Sequence of JAK2V617F mutant of the JAK2 tyrosine kinase (O60674 whole entry V617F): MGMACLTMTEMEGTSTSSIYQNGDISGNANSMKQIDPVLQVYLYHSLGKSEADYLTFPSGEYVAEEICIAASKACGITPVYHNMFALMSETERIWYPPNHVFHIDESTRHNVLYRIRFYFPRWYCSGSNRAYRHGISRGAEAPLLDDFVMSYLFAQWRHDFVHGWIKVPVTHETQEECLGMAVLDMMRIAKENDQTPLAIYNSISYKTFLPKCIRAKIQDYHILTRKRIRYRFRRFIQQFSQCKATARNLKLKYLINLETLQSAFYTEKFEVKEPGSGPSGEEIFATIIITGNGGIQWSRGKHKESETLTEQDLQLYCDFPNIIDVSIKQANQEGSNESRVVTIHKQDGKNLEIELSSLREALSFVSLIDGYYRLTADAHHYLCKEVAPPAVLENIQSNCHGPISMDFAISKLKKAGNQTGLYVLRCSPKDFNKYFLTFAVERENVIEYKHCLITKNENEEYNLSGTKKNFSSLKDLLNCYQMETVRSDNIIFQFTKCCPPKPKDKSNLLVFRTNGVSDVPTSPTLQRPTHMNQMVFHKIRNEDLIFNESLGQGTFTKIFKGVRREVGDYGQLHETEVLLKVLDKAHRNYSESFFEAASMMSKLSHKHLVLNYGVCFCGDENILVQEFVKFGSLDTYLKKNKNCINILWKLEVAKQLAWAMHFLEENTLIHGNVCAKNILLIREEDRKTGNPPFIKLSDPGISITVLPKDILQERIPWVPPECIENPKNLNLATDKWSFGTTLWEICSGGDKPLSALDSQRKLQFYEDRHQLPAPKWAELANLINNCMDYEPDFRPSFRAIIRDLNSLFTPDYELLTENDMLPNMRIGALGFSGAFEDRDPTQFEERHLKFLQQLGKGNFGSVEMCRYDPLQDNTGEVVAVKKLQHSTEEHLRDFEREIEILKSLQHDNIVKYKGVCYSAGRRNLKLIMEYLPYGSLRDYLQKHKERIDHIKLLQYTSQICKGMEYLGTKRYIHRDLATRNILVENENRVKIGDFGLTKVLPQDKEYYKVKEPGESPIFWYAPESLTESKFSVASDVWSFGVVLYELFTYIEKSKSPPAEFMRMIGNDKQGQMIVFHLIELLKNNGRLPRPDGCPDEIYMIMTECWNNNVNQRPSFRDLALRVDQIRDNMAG

As to `C#Cc1cccc(Nc2ncnc3cc(OCCOC)c(OCCOC)cc23)c1` [Tarceva, N-(3-ethynylphenyl)-6,7-bis(2-methoxyethoxy)quinazolin-4-amine], in data set [1], the “Inhibition of JAK2V617F mutant” value was “potent inhibitor”.
As to `O[C@H]([C@H](O)[C@@H](O)CBr)[C@H](O)CBr` [dibromodulcitol], the “Absorption by the oral route” value is “rapid and fairly complete”.
